These molecules were tested against Beta-3 Adrenergic Receptor (Homo sapiens (Human), UniProt P13945) (assay: Homogeneous Time-Resolved Fluorescence (HTRF) cAMP antagonist assay, IC50 determination). Settings: CHO-K1 cells stably expressing recombinant receptor, isoproterenol at EC90.
Assay type: cell-based
Summary of the method: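 CHO-K1 cells stably expressing the recombinant receptor were preincubated with compound (10-point, 5-fold dilutions; top final typically 10 or 100 μM) in PBS with 1 mM IBMX, then stimulated with isoproterenol at its EC90 for 1 h at room temperature. cAMP was read by HTRF against an on-plate standard curve.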

Beta-3 Adrenergic Receptor, sequence (P13945 whole entry, species assumed): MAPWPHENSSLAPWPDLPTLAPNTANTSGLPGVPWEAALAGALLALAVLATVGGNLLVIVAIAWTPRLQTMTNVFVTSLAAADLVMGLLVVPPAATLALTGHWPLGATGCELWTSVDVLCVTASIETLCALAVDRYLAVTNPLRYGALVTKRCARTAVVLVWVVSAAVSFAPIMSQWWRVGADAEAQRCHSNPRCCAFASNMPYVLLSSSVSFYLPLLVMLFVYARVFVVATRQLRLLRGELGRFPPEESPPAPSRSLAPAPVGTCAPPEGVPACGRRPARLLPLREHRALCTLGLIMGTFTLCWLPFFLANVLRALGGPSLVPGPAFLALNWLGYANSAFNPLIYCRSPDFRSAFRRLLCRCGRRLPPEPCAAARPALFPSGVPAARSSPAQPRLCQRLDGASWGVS

Compound | IC50 [µM]
CNS(=O)(=O)c1cccc(OC[C@@H](O)CN[C@H]2COC3(CCN(S(=O)(=O)c4cnc5c(c4)CNC5)CC3)C2)c1 [Compound 482, 3-((S)-3-((R)-8-(6,7-dihydro-5H-pyrrolo[3,4-b]pyridin-3-ylsulfonyl)-1-oxa-8-azaspiro[4.5]decan-3-ylamino)-2-hydroxypropoxy)-N-methylbenzenesulfonamide] | 1.51
CCNS(=O)(=O)c1cccc(OC[C@@H](O)CNC2COC3(CCN(S(=O)(=O)c4cc(C)ccc4F)CC3)C2)c1 (stereo partly drawn) [Compound 226, N-ethyl-3-((2S)-3-(8-(2-fluoro-5-methylphenylsulfonyl)-1-oxa-8-azaspiro[4.5]decan-3-ylamino)-2-hydroxypropoxy)benzenesulfonamide] | 0.155
CNS(=O)(=O)c1cccc(OC[C@@H](O)CN[C@@H]2COC3(CCN(S(=O)(=O)c4ccc5ncccc5c4)CC3)C2)c1 [Compound 343, 3-((S)-2-hydroxy-3-((S)-8-(quinolin-6-ylsulfonyl)-1-oxa-8-azaspiro[4.5]decan-3-ylamino)propoxy)-N-methylbenzenesulfonamide] | 0.0277
CNS(=O)(=O)c1cccc(OC[C@@H](O)CNC2COC3(CCN(S(=O)(=O)c4ccc(C#N)cc4)CC3)C2)c1 (stereo partly drawn) [Compound 44, 3-((2S)-3-(8-(4-cyanophenylsulfonyl)-1-oxa-8-azaspiro[4.5]decan-3-ylamino)-2-hydroxypropoxy)-N-methylbenzenesulfonamide] | 0.0341
CCNS(=O)(=O)c1cccc(OC[C@@H](O)CNC2COC3(CCN(S(=O)(=O)c4ccc(OC)c(C)c4)CC3)C2)c1 (stereo partly drawn) [Compound 225, N-ethyl-3-((2S)-2-hydroxy-3-(8-(4-methoxy-3-methylphenylsulfonyl)-1-oxa-8-azaspiro[4.5]decan-3-ylamino)propoxy)benzenesulfonamide] | 0.186
CNS(=O)(=O)c1cccc(OC[C@@H](O)CN[C@H]2COC3(CCN(S(=O)(=O)c4cnc5c(c4)N(CCOCc4ccccc4)CCO5)CC3)C2)c1 [Compound 462, 3-((S)-3-((R)-8-(1-(2-(benzyloxy)ethyl)-2,3-dihydro-1H-pyrido[2,3-b][1,4]oxazin-7-ylsulfonyl)-1-oxa-8-azaspiro[4.5]decan-3-ylamino)-2-hydroxypropoxy)-N-methylbenzenesulfonamide] | 0.107
CN1CCOc2ncc(S(=O)(=O)N3CCC4(CC3)C[C@@H](NC[C@H](O)COc3cccc(S(=O)(=O)N[C@@H]5CCCC[C@@H]5O)c3)CO4)cc21 [Compound 435, 3-((S)-2-hydroxy-3-((R)-8-(1-methyl-2,3-dihydro-1H-pyrido[2,3-b][1,4]oxazin-7-ylsulfonyl)-1-oxa-8-azaspiro[4.5]decan-3-ylamino)propoxy)-N-((1R,2S)-2-hydroxycyclohexyl)benzenesulfonamide] | 0.191
CCCn1cc(S(=O)(=O)N2CCC3(CC2)C[C@@H](NC[C@H](O)COc2cccc(S(=O)(=O)NC)c2)CO3)c(=O)c2ccccc21 [Compound 524, 3-((S)-2-hydroxy-3-((R)-8-(4-oxo-1-propyl-1,4-dihydroquinolin-3-ylsulfonyl)-1-oxa-8-azaspiro[4.5]decan-3-ylamino)propoxy)-N-methylbenzenesulfonamide] | 0.0872
CN1CCOc2ncc(S(=O)(=O)N3CCC4(CC3)C[C@@H](NC[C@H](O)COc3cccc(S(=O)(=O)NC5CCCC5O)c3)CO4)cc21 (stereo in doubt) [Compound 437, 3-((S)-2-hydroxy-3-((R)-8-(1-methyl-2,3-dihydro-1H-pyrido[2,3-b][1,4]oxazin-7-ylsulfonyl)-1-oxa-8-azaspiro[4.5]decan-3-ylamino)propoxy)-N-((1R,2S)-2-hydroxycyclopentyl)benzenesulfonamide] | 0.472
CNS(=O)(=O)c1cccc(OC[C@@H](O)CN[C@H]2COC3(CCN(S(=O)(=O)c4cc(C)ccc4F)CC3)C2)c1 [Compound 269, 3-((S)-3-((R)-8-(2-fluoro-5-methylphenylsulfonyl)-1-oxa-8-azaspiro[4.5]decan-3-ylamino)-2-hydroxypropoxy)-N-methylbenzenesulfonamide] | 0.0247
CNS(=O)(=O)c1cccc(OC[C@@H](O)CN[C@H]2COC3(CCN(c4nccc(OC)n4)CC3)C2)c1 [Compound 568, 3-((S)-2-hydroxy-3-((R)-8-(4-methoxypyrimidin-2-yl)-1-oxa-8-azaspiro[4.5]decan-3-ylamino)propoxy)-N-methylbenzenesulfonamide] | 0.411
CNS(=O)(=O)c1cccc(OC[C@@H](O)CNC2COC3(CCN(S(=O)(=O)c4cccnc4)CC3)C2)c1 (stereo partly drawn) [Compound 324, 3-((2S)-2-hydroxy-3-(8-(pyridin-3-ylsulfonyl)-1-oxa-8-azaspiro[4.5]decan-3-ylamino)propoxy)-N-methylbenzenesulfonamide] | 0.078
CNS(=O)(=O)c1cccc(OC[C@@H](O)CN[C@@H]2COC3(CCN(S(=O)(=O)c4ccc5c(c4)CCCO5)CC3)C2)c1 [Compound 183, 3—((S)-3-((S)-8-(chroman-6-ylsulfonyl)-1-oxa-8-azaspiro[4.5]decan-3-ylamino)-2-hydroxypropoxy)-N-methylbenzenesulfonamide] | 0.0164
O=S(=O)(NCC(F)(F)F)c1cccc(OC[C@@H](O)CNC2COC3(CCN(S(=O)(=O)c4ccc5ccccc5c4)CC3)C2)c1 (stereo partly drawn) [Compound 5, 3-((2S)-2-hydroxy-3-(8-(naphthalen-2-ylsulfonyl)-1-oxa-8-azaspiro[4.5]decan-3-ylamino)propoxy)-N-(2,2,2-trifluoroethyl)benzenesulfonamide] | 0.22
CNS(=O)(=O)c1cccc(OC[C@@H](O)CNC2COC3(CCN(S(=O)(=O)c4cccc5nsnc45)CC3)C2)c1 (stereo partly drawn) [Compound 128, 3-((2S)-3-(8-(benzo[c][1,2,5]thiadiazol-4-ylsulfonyl)-1-oxa-8-azaspiro[4.5]decan-3-ylamino)-2-hydroxypropoxy)-N-methylbenzenesulfonamide] | 0.0114
CCC(C)c1ccc(S(=O)(=O)N2CCC3(CC2)CC(NC[C@H](O)COc2cccc(S(=O)(=O)NC)c2)CO3)cc1 (stereo partly drawn) [Compound 22, 3-((2S)-3-(8-(4-sec-butylphenylsulfonyl)-1-oxa-8-azaspiro[4.5]decan-3-ylamino)-2-hydroxypropoxy)-N-methylbenzenesulfonamide] | 0.015
CNS(=O)(=O)c1cccc(OC[C@@H](O)CNC2COC3(CCN(S(=O)(=O)c4cccc(-c5ccc(CNC(=O)CC(=O)O)cc5)c4)CC3)C2)c1 (stereo partly drawn) [Compound 352, 3-((3′-(3-((S)-2-hydroxy-3-(3-(N-methylsulfamoyl)phenoxy)propylamino)-1-oxa-8-azaspiro[4.5]decan-8-ylsulfonyl)biphenyl-4-yl)methylamino)-3-oxopropanoic acid] | 0.167
CNS(=O)(=O)c1cccc(OC[C@@H](O)CNC2COC3(CCN(S(=O)(=O)c4ccc(F)cc4)CC3)C2)c1 (stereo partly drawn) [Compound 26, 3-((2S)-3-(8-(4-fluorophenylsulfonyl)-1-oxa-8-azaspiro[4.5]decan-3-ylamino)-2-hydroxypropoxy)-N-methylbenzenesulfonamide] | 0.0341
CC(C)(CO)NS(=O)(=O)c1cccc(OC[C@@H](O)CNC2COC3(CCN(S(=O)(=O)c4ccc5ccccc5c4)CC3)C2)c1 (stereo partly drawn) [Compound 49, N-(1-hydroxy-2-methylpropan-2-yl)-3-((2S)-2-hydroxy-3-(8-(naphthalen-2-ylsulfonyl)-1-oxa-8-azaspiro[4.5]decan-3-ylamino)propoxy)benzenesulfonamide] | 0.107
CNS(=O)(=O)c1cccc(OC[C@@H](O)CNC2COC3(CCN(S(=O)(=O)c4cccc(-c5ccc(CNC(C)C)cc5)c4)CC3)C2)c1 (stereo partly drawn) [Compound 303, 3-((2S)-2-hydroxy-3-(8-(4′-((isopropylamino)methyl)biphenyl-3-ylsulfonyl)-1-oxa-8-azaspiro[4.5]decan-3-ylamino)propoxy)-N-methylbenzenesulfonamide] | 0.0326
CNS(=O)(=O)c1cccc(OC[C@@H](O)CNC2COC3(CCN(S(=O)(=O)c4cn(C)c(C)n4)CC3)C2)c1 (stereo partly drawn) [Compound 119, 3-((2S)-3-(8-(1,2-dimethyl-1H-imidazol-4-ylsulfonyl)-1-oxa-8-azaspiro[4.5]decan-3-ylamino)-2-hydroxypropoxy)-N-methylbenzenesulfonamide] | 0.203
CNS(=O)(=O)c1cccc(OC[C@@H](O)CNC2COC3(CCN(S(=O)(=O)c4cc(C)cc(C)c4)CC3)C2)c1 (stereo partly drawn) [Compound 23, 3-((2S)-3-(8-(3,5-dimethylphenylsulfonyl)-1-oxa-8-azaspiro[4.5]decan-3-ylamino)-2-hydroxypropoxy)-N-methylbenzenesulfonamide] | 0.0138
CNS(=O)(=O)c1cccc(OC[C@@H](O)CNC2COC3(CCN(S(=O)(=O)c4ccc(C#N)c(Cl)c4)CC3)C2)c1 (stereo partly drawn) [Compound 239, 3-((2S)-3-(8-(3-chloro-4-cyanophenylsulfonyl)-1-oxa-8-azaspiro[4.5]decan-3-ylamino)-2-hydroxypropoxy)-N-methylbenzenesulfonamide] | 0.0223
CNS(=O)(=O)c1cccc(OC[C@@H](O)CNC2COC3(CCN(S(=O)(=O)c4ccc(-c5cc(C(F)(F)F)on5)s4)CC3)C2)c1 (stereo partly drawn) [Compound 208, 3-((2S)-2-hydroxy-3-(8-(5-(5-(trifluoromethyl)isoxazol-3-yl)thiophen-2-ylsulfonyl)-1-oxa-8-azaspiro[4.5]decan-3-ylamino)propoxy)-N-methylbenzenesulfonamide] | 0.0646
CNS(=O)(=O)c1cccc(OC[C@@H](O)CNC2COC3(CCN(S(=O)(=O)c4cc(F)ccc4Cl)CC3)C2)c1 (stereo partly drawn) [Compound 202, 3-((2S)-3-(8-(2-chloro-5-fluorophenylsulfonyl)-1-oxa-8-azaspiro[4.5]decan-3-ylamino)-2-hydroxypropoxy)-N-methylbenzenesulfonamide] | 0.0108
CNS(=O)(=O)c1cccc(OC[C@@H](O)CNC2COC3(CCN(S(=O)(=O)c4ccc(Cl)c5nonc45)CC3)C2)c1 (stereo partly drawn) [Compound 185, 3-((2S)-3-(8-(7-chlorobenzo[c][1,2,5]oxadiazol-4-ylsulfonyl)-1-oxa-8-azaspiro[4.5]decan-3-ylamino)-2-hydroxypropoxy)-N-methylbenzenesulfonamide] | 0.00725

— patent US11987588B2, “Modulators of the beta-3 adrenergic receptor useful for the treatment or prevention of heart failure and disorders related thereto” (Arena Pharmaceuticals, Inc., priority 2017, dated 2024)
